Measurements from PubChem BioAssay (NCI).
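Values below derive from 48-hour exposures of cells grown in 96-well plates, with endpoints linearly interpolated between the two concentrations bracketing the appropriate inhibition level. The concentration for 50% growth inhibition is given as GI50. TGI is the concentration that stops growth completely.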

Tests used:
Test in all cases: growth of human tumour cells (NCI), 48 h
[1] = system: IGROV1 ovarian
[2] = system: RPMI-8226 leukemia
[3] = system: SNB-75 CNS
[4] = system: PC-3 prostate
[5] = system: KM12 colon
[6] = system: SF-268 CNS
[7] = system: K-562 leukemia
[8] = system: CCRF-CEM leukemia
[9] = system: OVCAR-3 ovarian
[10] = system: NCI-H226 lung
[11] = system: RXF 393 renal
[12] = system: SF-295 CNS

Compound	TGI [1] [µM]	TGI [2] [µM]	TGI [3] [µM]	TGI [4] [µM]	TGI [5] [µM]	TGI [6] [µM]	TGI [7] [µM]	TGI [8] [µM]	TGI [9] [µM]	TGI [10] [µM]	TGI [11] [µM]	TGI [12] [µM]	GI50 [1] [nM]	GI50 [4] [nM]	GI50 [5] [nM]	GI50 [6] [nM]	GI50 [7] [nM]	GI50 [8] [nM]	GI50 [9] [nM]	GI50 [11] [nM]
CCOP(=O)(COCCn1nc(Br)c(=O)[nH]c1=O)OCC	> 100	> 100	> 100	> 100	> 100	> 100	> 100	> 100	> 100	> 100	> 100									
O=C1C=CC(=O)c2c(O)c(N3CCN(c4ncccn4)CC3)c(Cl)c(O)c21	3.43		21.8	8.88	15.2	7.88	5.07	4.24	3.16	44.8	3.51	25.5								
CN(C)C(=O)/N=C1\SC(=Nc2ccccc2)C(=Nc2ccccc2)N1c1ccc([N+](=O)[O-])cc1	> 100	> 100	> 100	> 100	> 100		> 100	> 100	> 100	> 100	> 100	> 100								
CSc1ncnc2c1cnn2Cc1cn(COCC(O)CO)nn1 (configuration not stated)	> 100	> 100		> 100	> 100	52.7		> 100	> 100	> 100		> 100								
O=C1c2cc3c(cc2-c2c1c1cc(F)c(F)cc1c(=O)n2C[C@H](O)CO)OCO3	> 100			> 100	> 100	> 100	> 100	> 100	0.753		0.335		182	127	123	41.1	69	34.9	224	121
Cc1ccc(S(=O)(=O)N2CCc3cc(O)c([N+](=O)[O-])cc32)cc1	> 100		> 100	> 100	> 100	> 100		> 100		> 100	> 100	> 100								
CCC(C)C(NC(=O)C(CCCC[N+](=N)N)NC(=O)C(CCCC[N+](=N)N)NC(=O)c1ccc(OC)cc1)C(=O)NC(CCCC[N+](=N)N)C(=O)N1CCCC1C(=O)NC(CCCCN)C(=O)NC(CC(C)C)C(N)=O (configuration not stated)		> 100	> 100	> 100	> 100	> 100	> 100	> 100	> 100	> 100	> 100	> 100								
CC(Br)CN(CC(C)Br)c1ccc2c(c1)Cc1ccccc1-2 (configuration not stated)	20.7	71.8	25.2	22.7	31.4	23.3	33.2	> 100	24		28	22.6								
CCOP(=O)(CC1OC(CO)C(O)C1O)OCC (configuration not stated)	> 100	> 100	> 100	> 100	> 100	> 100	> 100	> 100	> 100		> 100	> 100								
CC1=NN(c2cccc(Cl)c2)C2(C1=Cc1ccc(N(C)C)cc1)C(Cl)C(=O)N2c1nc2ccccc2s1 (configuration not stated)	> 100	> 100		> 100	38.5	52.4	> 100	> 100	> 100	> 100	46	> 100								
O=c1ccn([C@@H]2C=C(CO)[C@@H](O)[C@H]2O)c(=O)[nH]1	> 625		431		> 625	> 625		> 625	> 625	> 625	> 625	> 625								
CCOC(=O)c1c(-c2ccc(OC)cc2)c(C#N)c(=S)n(C2OC(CO)C(O)C(O)C2O)c1C (configuration not stated)	> 100		> 100	> 100	> 100	> 100	> 100	> 100	> 100	> 100	> 100	> 100								
COC(=O)c1ccc2cc(O)ccc2c1	> 100	> 100		> 100	> 100	> 100	> 100	> 100	> 100	> 100	> 100	> 100								
CC1=[N+]([O-])C2(CCCC2)N(O)C1(C)C	> 100	> 100		> 100	> 100	> 100	> 100		> 100	> 100	> 100	> 100								
CC12CCC(=O)[C@@]1(C)CCCC2=O (some centres not stated)	> 100			> 100	> 100	> 100	> 100	> 100		> 100	> 100	> 100								
O=c1cccc2n1CC1CNCC2C1 (configuration not stated)		> 100	> 100	> 100	> 100	> 100	> 100	> 100	> 100	> 100	> 100	> 100								
O=C(/C=C/CC(O)(c1ccccc1)c1ccccc1)Nc1ccccc1Cl		> 100	> 100		> 100	> 100	> 100	> 100	> 100	> 100		> 100								
Oc1ccc(C[C@@H]2CN[C@H](Cc3ccc(O)c(Br)c3)CN2)cc1	> 100		> 100	> 100	> 100	> 100		> 100	> 100	> 100	> 100	> 100								
CC1=CC(O)CC(C)(C)C1/C=C/C(C)=C/C=C/C(C)=C/C=C/C=C(C)/C=C/C=C(C)/C=C/C1=C(C)CC(O)CC1(C)C (configuration not stated)	66.3	> 100	> 100	62.6	> 100		> 100	> 100	32.8	41.4	33.2	58.4								

Compound	TGI [1] [µM]	TGI [2] [µM]	TGI [3] [µM]	TGI [4] [µM]	TGI [5] [µM]	TGI [6] [µM]	TGI [7] [µM]	TGI [8] [µM]	TGI [9] [µM]	TGI [10] [µM]	TGI [11] [µM]	TGI [12] [µM]	GI50 [1] [nM]	GI50 [4] [nM]	GI50 [5] [nM]	GI50 [6] [nM]	GI50 [7] [nM]	GI50 [8] [nM]	GI50 [9] [nM]	GI50 [11] [nM]
COc1ccc(CCn2ccc(=O)c(O)c2C)cc1OC		96.9		> 100	> 100	9.92	> 100					> 100								
CC1OC2OC3C(OCC(O)C3O)OC(=O)[C@]34CCC(C)(C)CC3C3=CCC5[C@@]6(C)C[C@H](O)[C@H](OC7OC(CO)C(O)C(O)C7OC7OC(COC(=O)CC(C)(O)CC(=O)OC1C(OC1OC(CO)C(O)C(O)C1O)C2O)C(O)C(O)C7O)[C@@](C)(CO)C6CC[C@@]5(C)[C@]3(C)CC4 (some centres not stated)	11.8	10.2	6.79	6.85	8.24	10.5		14	15.2	22.7		3.72								
CO[C@H](C)[C@](O)(C(=O)OCC1=CCN2CC[C@@H](O)[C@H]12)C(C)C	> 100	> 100	> 100	> 100	> 100	> 100	> 100	> 100	> 100	> 100		> 100								
CC(=O)OC1COC(N2c3ccccc3[C@@H]3CCc4c([nH]c5ccccc45)[C@@H]32)C(OC(C)=O)C1OC(C)=O (mixture of isomers)	54	> 100	> 100	> 100	> 100	> 100		> 100	> 100			> 100								
COc1cccc(Nc2nc3c([nH]2)c(=O)n(C)c(=O)n3C)c1	> 10	> 10	> 10	> 10	> 10	> 10	> 10	> 10			> 10	> 10								
C=C1C[C@@H]2CC[C@@]34CC5O[C@H]6C(O[C@H]7CC[C@H](CC(=O)O[C@@H]8[C@@H](C)[C@@H]9O[C@@H]%10C[C@]%11(C[C@@H]%12O[C@]%13(C[C@H](C)[C@@H]%14O[C@@H]%15CC(C(COC(C)=O)OC(C)=O)O[C@@H]%15C[C@@H]%14O%13)C[C@H](C)[C@@H]%12O%11)O[C@@H]%10C[C@@H]9O[C@H]8CC8O[C@@H](CC[C@@H]1O2)C[C@@H](C)C8(O)CO)O[C@@H]7[C@@H]6O3)[C@H]5O4 (some centres not stated)	> 1	> 1	> 1	> 1	> 0.792	> 0.955	> 1	> 1	> 1	> 1		> 1								
Fc1cccc(F)c1C1SCc2nc3cc(Cl)ccc3n21 (configuration not stated)	> 72.4	69.2	> 100	> 100	72.9	> 100	> 100	> 100	> 100		> 100	> 70.2								
CCc1nc2c([nH]1)C(=O)c1ccccc1C2=O			> 100		> 100	> 100	> 100	> 100	61.7	> 100	> 100	> 100								
O=C(O)C12C3C4(C(=O)O)C1C1(C(=O)O)C2C3(C(=O)O)C41 (configuration not stated)	> 100	> 100	> 100	> 100	> 100	> 100	> 100	> 100	> 100			> 100								
CCOC(=O)C(NC(=O)CC)(Nc1ccccc1F)C(F)(F)F (configuration not stated)	> 100	> 100	> 100	> 100	> 100	> 100	> 100		> 100		> 100	> 100								
CN(C)CN1C(=O)/C(=N\n2c(-c3ccncc3)n[nH]c2=S)c2ccccc21	> 100		> 100	> 100	> 100	> 100	> 100	> 100	> 100	> 100	32.4	> 100								
O=C(O)Cn1c[n+](NC(=O)Cc2ccccc2)cn1	> 10	> 10	> 10		> 10	> 10	> 10	> 10	> 10			> 10								
Nc1cc2nc(-c3ccccc3)cn2cn1		> 100	> 100	> 100	> 100	> 100	> 100	> 100	> 100	> 100	> 100	> 100								
Cn1c(=O)c2[nH]c(Nc3cccc(Cl)c3)nc2n(C)c1=O	> 10	> 10	> 10	> 10	> 10	> 10	> 10	> 10			8.76	> 10								
COC(=O)Cc1c2n(c3ccccc13)C(=O)N1c3ccccc3C(CC(=O)OC)C21 (configuration not stated)	71.6	> 100	28.5	> 100		> 100	> 100	> 100	> 100	> 100	64	68.2								
CC1CCc2sc3[nH]c(=S)n(C)c(=O)c3c2C1 (configuration not stated)	> 100	> 100	> 100	72	> 100	> 100	> 100		62.4	87.9	> 100	> 100								
O=C(O[C@@H](/C=C/c1ccccc1)P1(=O)N(Cc2ccccc2)[C@@H]2CCCC[C@H]2N1Cc1ccccc1)c1ccccc1	15.5	6.24		> 100	15.5	> 100	> 100	80.9	> 100	9.58		> 100								
CCC1(c2ccc(OC)c(OC)c2)CCN2C(=O)C(O)CC21 (configuration not stated)	> 100		> 100	> 100	> 100	> 100	> 100	> 100	> 100	> 100	> 100	> 100								
CN(C)CCN1C(=O)N(CCN(C)C)c2c3cc(O)ccc3nc3c([N+](=O)[O-])ccc1c23	13.6	42.4	44.9	75	23.3	26.7	14.5	20		30.5										
